Experimental data from the supplement of paper PMC10307832.

Legend:
Test in all cases: relative viability (nuclei count vs DMSO), 5 days (fraction); higher = more cells survive
R406 + Tozasertib = compound: COc1cc(Nc2ncc(F)c(Nc3ccc4c(n3)NC(=O)C(C)(C)O4)n2)cc(OC)c1OC [R406] + Cc1cc(Nc2cc(N3CCN(C)CC3)nc(Sc3ccc(NC(=O)C4CC4)cc3)n2)n[nH]1 [Tozasertib] (partner 0.1 µM)
How it was run: (§1)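 Nuclei were stained with Hoechst during a one-step fixation (final 0.05% Triton X-100, 1% formaldehyde, 1 ug/ml Hoechst) carried out 5 days after dosing, then counted on 4× images. The cells, lung cancer lines in 1536-well plates, had been dosed by pin tool the day after seeding with one drug alone or a fixed anchor-drug dose plus five library-drug doses (not always all listed) in √10 steps. Relative viability is the nuclei count in treated wells divided by that in vehicle wells, and each value is the median of duplicate plates.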

Daporinad + Linsitinib = compound: O=C(/C=C/c1cccnc1)NCCCCC1CCN(C(=O)c2ccccc2)CC1 [Daporinad] + C[C@]1(O)C[C@@H](c2nc(-c3ccc4ccc(-c5ccccc5)nc4c3)c3c(N)nccn32)C1 [Linsitinib] (partner 1 µM)
How it was run: as §1

Daporinad + Navitoclax = compound: O=C(/C=C/c1cccnc1)NCCCCC1CCN(C(=O)c2ccccc2)CC1 [Daporinad] + CC1(C)CCC(c2ccc(Cl)cc2)=C(CN2CCN(c3ccc(C(=O)NS(=O)(=O)c4ccc(N[C@H](CCN5CCOCC5)CSc5ccccc5)c(S(=O)(=O)C(F)(F)F)c4)cc3)CC2)C1 [Navitoclax] (partner 0.5 µM)
How it was run: as §1

Daporinad + Palbociclib = compound: O=C(/C=C/c1cccnc1)NCCCCC1CCN(C(=O)c2ccccc2)CC1 [Daporinad] + CC(=O)c1c(C)c2cnc(Nc3ccc(N4CCNCC4)cn3)nc2n(C2CCCC2)c1=O [Palbociclib] (partner 0.5 µM)
How it was run: as §1

| Cell Line | relative viability (R406 + Tozasertib; first compound 0.08 µM) | relative viability (R406 + Tozasertib; first compound 0.253 µM) | relative viability (R406 + Tozasertib; first compound 0.8 µM) | relative viability (R406 + Tozasertib; first compound 2.53 µM) | relative viability (R406 + Tozasertib; first compound 8 µM) | relative viability (Daporinad + Linsitinib; first compound 0.0005 µM) | relative viability (Daporinad + Linsitinib; first compound 0.001581 µM) | relative viability (Daporinad + Linsitinib; first compound 0.005 µM) | relative viability (Daporinad + Linsitinib; first compound 0.01581 µM) | relative viability (Daporinad + Navitoclax; first compound 0.001581 µM) | relative viability (Daporinad + Navitoclax; first compound 0.005 µM) | relative viability (Daporinad + Navitoclax; first compound 0.01581 µM) | relative viability (Daporinad + Palbociclib; first compound 0.0005 µM) | relative viability (Daporinad + Palbociclib; first compound 0.001581 µM) | relative viability (Daporinad + Palbociclib; first compound 0.005 µM) | relative viability (Daporinad + Palbociclib; first compound 0.01581 µM) | relative viability (Daporinad + Navitoclax; first compound 0.0005 µM) |
| --- | --- | --- | --- | --- | --- | --- | --- | --- | --- | --- | --- | --- | --- | --- | --- | --- | --- |
| NCI-H441 | 0.676 | 0.72 | 0.635 | 0.524 | 0.265 | 0.533 | 0.473 | 0.605 | 0.56 | 0.609 | 0.815 | 0.559 | 0.186 | 0.209 | 0.212 | 0.23 |  |
| COR-L23 | 0.173 | 0.218 | 0.164 | 0.15 | 0.113 | 0.964 | 0.959 | 0.942 | 0.189 | 0.966 | 0.916 | 0.186 | 0.302 | 0.362 | 0.278 | 0.191 | 1.01 |
| NCI-H2087 | 0.293 | 0.238 | 0.298 |  | 0.253 | 0.991 | 0.908 | 0.956 | 0.98 | 0.881 | 1.03 | 0.912 | 0.215 | 0.242 | 0.224 | 0.243 | 1.05 |
| LC-2-ad | 0.509 | 0.482 | 0.368 | 0.422 | 0.351 | 0.688 | 0.972 | 0.877 | 0.83 | 0.544 | 0.553 | 0.393 | 0.463 | 0.511 | 0.491 | 0.486 | 0.43 |
| NCI-H1915 | 0.459 | 0.474 | 0.521 |  | 0.463 | 1.13 | 1.17 | 1.09 | 1.11 | 0.739 | 0.765 | 0.809 | 0.569 | 0.508 | 0.61 | 0.521 | 0.805 |
| NCI-H2023 | 0.384 | 0.396 | 0.354 | 0.225 | 0.178 | 0.764 | 0.723 | 0.768 | 0.686 | 1.14 | 0.958 | 0.995 | 0.402 | 0.405 | 0.445 | 0.401 | 0.995 |
| COR-L 105 | 0.344 | 0.325 | 0.439 | 0.237 | 0.399 | 0.927 | 1.07 | 0.842 | 1.08 | 0.883 | 0.722 | 0.618 | 0.395 | 0.401 | 0.37 | 0.44 | 0.777 |
| SK-LU-1 | 0.301 | 0.318 | 0.363 | 0.256 | 0.106 | 1.26 | 1.13 | 1.05 | 1.09 | 0.646 | 0.672 | 1.1 | 0.336 | 0.268 | 0.423 | 0.422 | 0.901 |
| LXF-289 | 0.192 | 0.178 | 0.197 | 0.183 | 0.067 | 0.904 | 0.972 | 1 | 1.1 | 0.951 | 0.971 | 1.02 | 0.59 | 0.633 | 0.6 | 0.602 | 0.868 |
| PC-3 [JPC-3] | 0.942 | 0.964 | 1.01 | 0.88 | 0.516 | 0.898 | 0.99 | 0.963 | 0.955 | 0.796 | 0.827 | 0.789 | 0.548 | 0.54 | 0.535 | 0.553 | 0.763 |
| NCI-H1666 | 0.584 | 0.725 | 0.582 | 0.633 | 0.418 | 0.834 | 0.764 | 0.747 | 0.839 | 1.05 | 0.861 | 0.796 | 0.653 | 0.679 | 0.624 | 0.69 | 0.957 |
| NCI-H2085 | 0.83 | 0.892 | 0.872 | 0.632 | 0.379 | 0.907 | 0.959 | 0.915 | 0.918 | 1.25 | 1.23 | 1.03 | 0.41 |  | 0.512 | 0.533 | 1.17 |
| NCI-H1734 | 0.294 | 0.272 | 0.262 | 0.26 | 0.206 | 0.841 | 0.962 | 0.894 | 0.732 | 0.96 | 0.903 | 0.601 | 0.361 | 0.404 | 0.356 | 0.328 | 0.845 |
| NCI-H2126 | 0.829 | 0.962 | 0.848 | 0.806 | 0.545 | 0.686 | 0.75 | 0.719 | 0.683 | 0.751 | 0.845 | 0.874 | 0.358 | 0.32 | 0.356 | 0.36 | 0.914 |
| EMC-BAC-2 | 0.311 | 0.286 | 0.305 | 0.279 | 0.246 | 0.904 | 0.797 | 0.802 | 0.339 | 1.16 | 1.01 | 0.318 | 0.513 | 0.546 | 0.41 | 0.327 | 1.16 |
| NCI-H1993 | 0.597 | 0.536 | 0.605 | 0.493 | 0.432 | 0.703 | 0.715 | 0.782 | 0.77 | 0.753 | 0.982 | 1.16 | 0.583 | 0.563 | 0.719 | 0.706 | 0.877 |
